Laboratory results: paper PMC9653733, “Characterization of a Potent, Selective, and Safe Inhibitor, Ac15(Az8)2, in Reversing Multidrug Resistance Mediated by Breast Cancer Resistance Protein (BCRP/ABCG2)” (International Journal of Molecular Sciences, 2022)
Values joined by “and” are separate entries in the source; they are usually repeats but may differ in a detail not shown here. Equal entries are not always repeated. Where two headings read alike, the source gives them in different places.

Columns and labels:
BCRP = target: T1, BCRP (Homo sapiens, UniProt Q9UNQ0, R482G); test: Intracellular Ac15(Az8)2 level in S1 and S1M180 (BCRP substrate test, UPLC-MS/MS); type: cell-based
T1 construct: endogenous in cells; host or cells: S1M180 (human colon carcinoma, mitoxantrone-selected)
T1 sequence (Q9UNQ0 1-655 R482G): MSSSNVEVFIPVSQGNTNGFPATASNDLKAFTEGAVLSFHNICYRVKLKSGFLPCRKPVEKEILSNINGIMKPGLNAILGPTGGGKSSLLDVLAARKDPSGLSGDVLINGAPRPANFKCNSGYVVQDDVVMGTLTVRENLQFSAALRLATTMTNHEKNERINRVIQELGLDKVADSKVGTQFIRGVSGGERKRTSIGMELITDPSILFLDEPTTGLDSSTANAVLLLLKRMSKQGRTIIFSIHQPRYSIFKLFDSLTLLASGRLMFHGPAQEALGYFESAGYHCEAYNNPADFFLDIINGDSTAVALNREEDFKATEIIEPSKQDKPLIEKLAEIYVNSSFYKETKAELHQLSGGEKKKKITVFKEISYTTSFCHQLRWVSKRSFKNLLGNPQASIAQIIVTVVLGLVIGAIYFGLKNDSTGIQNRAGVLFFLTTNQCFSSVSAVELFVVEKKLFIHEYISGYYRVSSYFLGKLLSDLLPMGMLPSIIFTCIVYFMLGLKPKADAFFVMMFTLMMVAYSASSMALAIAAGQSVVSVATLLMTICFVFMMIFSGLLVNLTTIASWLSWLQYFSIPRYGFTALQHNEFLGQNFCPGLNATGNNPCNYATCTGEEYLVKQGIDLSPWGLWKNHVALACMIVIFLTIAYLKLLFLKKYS
Method: (§1) Figure 2 Effect of Ac15(Az8)2 on intracellular accumulation of BCRP-substrates in S1 and S1M180 cells. Cells were pre-treated with 0.1% DMSO, 100 nM, or 1000 nM Ac15(Az8)2 and then incubated with BCRP substrates. (A) Topotecan accumulation. (B) DOX accumulation. The intracellular level of drug after treatment was normalized to that of S1 cells after incubating with 0.1% DMSO. Student unpaired two-tailed t-test was conducted as indicated (** p < 0.01, *** p < 0.001). (C) To measure DOX efflux, S1M180 cells were pre-incubated with medium containing 20 μM DOX for 1 h at 37 °C. Cells were then washed and further incubated with or without 1 µM of Ac15(Az8)2. At 0, 5, 10, 30, 60, 120, and 180 min, the cells were harvested to measure the intracellular DOX level. (D) To determine intracellular Ac15(Az8)2 concentration, 1 × 10^7 cells were incubated with 1 µM of Ac15(Az8)2 at 37 °C for 2 h. Cells were then washed with ice-cold PBS. To the cell pellet, acetonitrile was added to lyse the cells, and the supernatant was saved for Ac15(Az8)2 determination using UPLC–MS/MS.
BCRP is an efflux transporter with broad substrate selectivity. In order to study whether Ac15(Az8)2 is itself a substrate of BCRP, its intracellular level was measured after treating the S1 or S1M180 cells for 2 h.

BCRP (S1M180 cells) = target: T2, BCRP (S1M180 cells) (Homo sapiens, UniProt Q9UNQ0, R482G); test: Cell proliferation (MTS) assay: reversal of BCRP-mediated topotecan/DOX resistance in S1M180; type: cell-based
T2 construct: endogenous in cells; host or cells: S1M180 (human colon carcinoma, mitoxantrone-selected)
T2 sequence (Q9UNQ0 1-655 R482G): T1 sequence (Q9UNQ0 1-655 R482G)
Method: (§2) In total, 6500 cells of S1M180 or MCF7-MX100 were incubated with various doses of topotecan or DOX and modulators. The final volume in each well of 96-well plates was 200 µL. The plates were then incubated for 5 days at 37 °C. The CellTiter 96 AQueous Assay (Promega) was used to measure cell proliferation. According to the manufacturer’s instructions, MTS (2 mg/mL) and PMS (0.92 mg/mL) were mixed in a ratio of 20:1. An aliquot (10 μL) of the freshly prepared MTS/PMS mixture was added into each well, and the plate was incubated for 2 h at 37 °C. Optical absorbance at 490 nm was then recorded with microplate absorbance reader (Bio-Rad). IC50 values were calculated from the dose-response curves of MTS assays (Prism 4.0).

S1 cells = test: Drug accumulation assay in S1; type: cell-based, human; details: non-BCRP overexpressing S1 cells; 100 nM or 1000 nM
Method: as §1, with “To the cell pellet, acetonitrile was added to lyse the cells, and the supernatant was saved for Ac15(Az8)2 determination using UPLC–MS/MS.” left out
Briefly, 1 × 10^6 cells of S1 and S1M180 cells were pre-incubated with 100 nM or 1000 nM Ac15(Az8)2 for 2 h and followed by 50 µM of topotecan or 20 µM of DOX for 1-h incubation. […] The fluorescence level of DOX was determined by a fluorescence microplate reader (BMG Technologies) using excitation and an emission wavelength pair of 460 nm and 610 nm.

S1M180 xenograft = test: In vivo topotecan accumulation in tumor and plasma of S1M180-bearing mice; details: 45 mg/kg Ac15(Az8)2 I.P. one hour prior to 6 mg/kg topotecan I.P.; 5 h post administration
Text: (A) S1 xenograft. (B) S1M180 xenograft. There were 3 treatment groups in S1 and S1M180 xenograft model. Treatments were given as indicated by an arrow (↑). % of tumor volume reduction was compared among different treatment groups on days 55 and 71. a, b, and c = mean tumor volume of solvent control, topotecan alone, and combination treatment groups on day 55, respectively. d and e = mean tumor volume of topotecan alone and combination treatment groups on day 71. (C) Tumor weight of S1M180-bearing mice on termination day. (D) % change of tumor volume and tumor doubling time of S1M180 xenograft were determined on days 55 and 71. […] Number of animal death was monitored during the efficacy study. (E) Body weight of S1M180-bearing mice. (F) To measure plasma and intratumor level of topotecan, S1M180-bearing mice were administered with 45 mg/kg (I.P.) of Ac15(Az8)2 one hour prior to 6 mg/kg (I.P.) of topotecan administration. Five hours after topotecan administration, the mice were sacrificed. Plasma and tumor were collected for analyzing topotecan level using UPLC–MS/MS. Student’s unpaired two-tailed t-test was performed between combination group and topotecan alone group or solvent control group as indicated (* p < 0.05, ** p < 0.01, *** p < 0.001).

S1M180 cells = test: Cytotoxicity of anticancer drugs in S1M180 (0.1% DMSO); type: cell-based, human
Method: as §2

Row | SMILES | Intracellular level of Ac15(Az8)2 in S1M180 higher than in S1 (BCRP; 1 µM, 2 h, 37 °C) | Transport substrate of BCRP (BCRP; from intracellular levels in S1 vs S1M180) | EC50 (BCRP (S1M180 cells); HEK293/R2, MCF7-MX100 and S1M180, summary of Table 2, read-out: EC50 for reversing topotecan and DOX resistance in three BCRP-overexpressed cell lines (range)) [nM] | EC50 (BCRP (S1M180 cells); concentration reducing IC50 of anticancer drug by half, mean ± S.D., n = 3–4, read-out: EC50 needed for reversing BCRP-mediated DOX resistance, S1M180) | EC50 (BCRP (S1M180 cells); concentration reducing IC50 of anticancer drug by half, mean ± S.D., n = 3–4, read-out: EC50 needed for reversing BCRP-mediated topotecan resistance, S1M180) [nM] | EC50 (BCRP (S1M180 cells); range over DOX and topotecan resistance of Table 2, read-out: EC50 for reversing resistance in S1M180 (range)) [nM] | Effect on DOX accumulation in S1 (S1 cells) | Effect on topotecan accumulation in S1 (S1 cells) | Effect on plasma level of topotecan (S1M180 xenograft) | IC50 (S1M180 cells; Homo sapiens, S1-M1-80, S1M180 + 0.1% DMSO, mean ± S.D., n = 3, read-out: IC50 of topotecan) [µM] | RF (Relative Fold), topotecan (S1M180 cells; S1M180 + 0.1% DMSO (reference))
1 | COC(=O)c1cccc(COc2c(-c3ccc(OCCOCCn4cc(CN(Cc5ccccc5)Cc5cn(CCOCCOc6ccc(-c7oc8ccccc8c(=O)c7OCc7cccc(C(=O)OC)c7)cc6)nn5)nn4)cc3)oc3ccccc3c2=O)c1 [Ac15(Az8)2] | about 20% | not a transport substrate of BCRP | 3 to 72 | 56 nM and 56.1 nM | 72 ± 12 | 56 to 72 | did not affect | did not affect | did not change significantly |  | 
2 | CC[C@@]1(O)C(=O)OCc2c1cc1n(c2=O)Cc2cc3c(CN(C)C)c(O)ccc3nc2-1 [topotecan] |  |  |  |  |  |  |  |  |  | 12.4 | 1.0
